Reference: patent publication US20240390464A1, “Treatment of Adults With Overweight or Obesity With or Without Weight-Related Comorbidities” (Carmot Therapeutics Inc., priority 2023, published 2024)
Entries after “also recorded” stand apart in the source; their conditions may differ. Numbered stars: 1 amine (or outer) side, 2 acyl side, 3 side chain; on linkers, the order of the positions; unused ones are H or OH. Square brackets hold non-standard residues; d marks the D form. Side chains are listed from the residue outwards. Peptide text beside a SMILES is read from it. * marks the point of attachment. Isobutyryl(2-(3-CN-5-F-Ph)) = CC(C)(C(=O)*)c1cc(F)cc(C#N)c1; C20 diacid = O=C(O)CCCCCCCCCCCCCCCCCCC(=O)*; γGlu = O=C(O)[C@H](CCC(=O)[*:2])N[*:1]; AEEA = NCCOCCOCC(=O)O; Aib = CC(C)(N)C(=O)O; βAla = NCCC(=O)O

How the values were obtained:
[1] = Phase 1 MD Cohorts 11 and 12: safety, tolerability, disposition; assay type: in vivo, human
Experimental: The primary objective of this study is to determine the safety and tolerability of CT-388 in participants with and without type 2 diabetes mellitus (T2DM) when administered once weekly over 12 consecutive weeks for Cohorts 11 and 14 with titrated dosing (and additionally, up to 24 weeks for Cohorts 12 and 13).
The cohorts in the MD QW study are as follows. • Cohort 11: Once weekly dose administered SC in the abdomen across 12 consecutive weeks with CT-388 or matched placebo doses of 5.0 mg administered for the first 3 weeks and then titrated to 8.0 mg for the duration of the treatment period. If a participant(s) experiences moderate to severe tolerability issues after the third dose of 5 mg, the same 5 mg dose may be continued for up to an additional 2 weeks, i.e., up-titration to 8 mg may be attempted after the fourth or fifth 5 mg dose. If participant(s) still unable to tolerate 8 mg by Day 36, then that participant(s) may continue at 5 mg for the remaining duration of the treatment period. • Cohorts 12 and 13: Once weekly dose administered SC in the abdomen titrated across 12 consecutive weeks with CT-388 or matched placebo doses of: • 5.0 mg at Day 1 and Day 8 • 8.0 mg at Day 15 and Day 22 • 12.0 mg (or 8.0 mg based on tolerability) at Day 29 and Day 36 • 17.0 mg (or 12.0 mg based on tolerability) at Day 43 and Day 50 • 22.0 mg (or 12.0 mg or 17.0 mg based on tolerability) at Day 57. • If at 22 mg on Day 57, continue that dose for the duration of the treatment period. • If at 12 mg or 17 mg on Day 57, titration to the corresponding next higher dose level may be attempted on a weekly basis based on the individual's tolerability (e.g., if on Day 57, 12 mg dose was administered and tolerated, on Day 64, dose of 17 mg may be attempted). • If not able to tolerate, continue at the previously tolerated dose level until the following week (e.g., to Day 71), at which point another attempt can be made to the next higher dose level. • Attempts to the next higher dose level can continue to be made until Day 78. The dose level achieved at Day 78 should be maintained for an additional 12 weeks of weekly dosing in the extension period, resulting in a cumulative of 24 weeks of total doses for participants in Cohorts 12 and 13. At any time during the extension period, if the maintenance dose is not tolerated, then that dose may be either lowered by one corresponding dose level (e.g., if at 22 mg, decrease to 17 mg; if at 17 mg decrease to 12 mg), and/or the dosing may be withheld for up to 2 weeks. Following this temporary dose adjustment/withholding period, attempt to titrate back up to the previous (higher) dose level should be made. […]

[2] = chronic toxicology, repeat dosing 26 weeks; assay type: in vivo; settings: rats
Text: Thus, CT-388 can be a potent drug that induces significant weight loss and helps achieve optimal glycemic control, with acceptable tolerability, in overweight or obese adults with or without T2DM or other weight-related comorbidities. CT-388 can potentially be used as a non-invasive alternative to bariatric surgery for weight management.

[3] = Cohort 12, planned target 22 mg

For `CC[C@H](C)[C@H](NC(=O)[C@H](CC(C)C)NC(=O)[C@H](Cc1c[nH]c2ccccc12)NC(=O)[C@H](CCC(N)=O)NC(=O)[C@@H](NC(=O)[C@H](Cc1ccccc1)NC(=O)[C@H](C)NC(=O)[C@H](CCCCNC(=O)COCCOCCNC(=O)COCCOCCNC(=O)CC[C@H](NC(=O)CCCCCCCCCCCCCCCCCCC(=O)O)C(=O)O)NC(=O)[C@H](CCC(N)=O)NC(=O)[C@H](C)NC(=O)[C@@H](NC(=O)[C@H](CCCCN)NC(=O)[C@H](CC(=O)O)NC(=O)[C@H](CC(C)C)NC(=O)C(C)(C)NC(=O)[C@@H](NC(=O)[C@H](CO)NC(=O)[C@H](Cc1ccc(O)cc1)NC(=O)[C@H](CC(=O)O)NC(=O)[C@H](CO)NC(=O)[C@@H](NC(=O)[C@H](Cc1ccccc1)NC(=O)[C@@H](NC(=O)CNC(=O)[C@H](CCC(=O)O)NC(=O)CCNC(=O)C(C)(C)c1cc(F)cc(C#N)c1)[C@@H](C)O)[C@@H](C)O)[C@@H](C)CC)[C@@H](C)CC)C(C)C)C(=O)N[C@@H](C)C(=O)NCC(=O)NCC(=O)N1CCC[C@H]1C(=O)N[C@@H](CO)C(=O)N[C@@H](CO)C(=O)NCC(=O)N[C@@H](C)C(=O)N1CCC[C@H]1C(=O)N1CCC[C@H]1C(=O)N1CCC[C@H]1C(=O)N[C@@H](CO)C(N)=O` [CT-388] ({Isobutyryl(2-(3-CN-5-F-Ph))-βAla}-EGTFTSDYSI[Aib]LDKIAQK([AEEA-AEEA-γGlu-C20 diacid])AFVQWLIAGGPSSGAPPPS-NH2), the “SAEs or severe treatment related GI-related AEs” value ([1]; CT-388 participants, up to 24 weeks) was “No SAEs or severe treatment related GI-related AEs; also recorded: No SAEs or severe treatment related GI-related TEAE”, the “patients dosed per planned path and completed treatment on 22 mg” value [1, 3] was 75% and the “patients with dose down-titration who completed treatment on 12 mg” value [1, 3] was 25%. For the same compound, the safety and tolerability ([1]; up to 24 weeks of treatment, up to 22 mg SC QW) was “generally safe and well-tolerated”, the “tolerated dosing exceeds the pharmacologically active dose” value ([2]; 26-weeks) was 100 fold and the “tolerability, chronic toxicology” value ([2]; repeat dosing over 26-weeks) was “well tolerated”.
